Source: PubChem BioAssay (NCI)
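A five-concentration, 48-hour dose response in 96-well plates underlies each endpoint, interpolated linearly between surrounding concentrations. Here, GI50 denotes the concentration required for 50% inhibition of growth. TGI: total growth inhibition.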

Assays:
Assay in all cases: NCI tumour cell line growth inhibition, 48 h
SK-OV-3 ovarian = tested on: SK-OV-3 ovarian
ACHN renal = tested on: ACHN renal
UO-31 renal = tested on: UO-31 renal
NCI-H226 lung = tested on: NCI-H226 lung
SW-620 colon = tested on: SW-620 colon
UACC-257 melanoma = tested on: UACC-257 melanoma
MALME-3M melanoma = tested on: MALME-3M melanoma
SR leukemia = tested on: SR leukemia
SK-MEL-5 melanoma = tested on: SK-MEL-5 melanoma
SF-539 CNS = tested on: SF-539 CNS

Row | SMILES | TGI (SK-OV-3 ovarian) [µM] | TGI (ACHN renal) [µM] | TGI (UO-31 renal) [µM] | TGI (NCI-H226 lung) [µM] | TGI (SW-620 colon) [µM] | TGI (UACC-257 melanoma) [µM] | TGI (MALME-3M melanoma) [µM] | TGI (SR leukemia) [µM] | TGI (SK-MEL-5 melanoma) [µM] | GI50 (SK-OV-3 ovarian) [µM] | GI50 (ACHN renal) [µM] | GI50 (UO-31 renal) [µM] | GI50 (NCI-H226 lung) [µM] | GI50 (SW-620 colon) [µM] | GI50 (UACC-257 melanoma) [µM] | GI50 (MALME-3M melanoma) [µM] | GI50 (SF-539 CNS) [µM] | TGI (SF-539 CNS) [µM] | GI50 (SK-MEL-5 melanoma) [µM] | GI50 (SR leukemia) [µM]
1 | CC(=O)OC1CC2C(=O)C(=O)C1(C)C2(C)C (stereo unspecified) | > 100 | > 100 | > 100 | > 100 | > 100 | > 100 | > 100 | > 100 | > 100 |  |  |  |  |  |  |  |  |  |  | 
2 | C=[CH][Sn]([CH]=C)([O]c1cccc2cccnc12)[O]c1cccc2cccnc12 | 44.8 | 14.1 | 9.31 | 9.47 | 3.44 | 7.66 | 10.3 |  | 5.44 | 14.5 | 3.26 | 3.25 | 2.95 | 1.13 | 2.36 | 3.35 | 2.85 | 9.27 | 1.94 | 
3 | CC(=O)Oc1ccc(/C=N/NC(N)=S)nc1 | > 100 | > 100 | 14.1 | 74.3 | > 100 | 57.7 | 43.5 | > 100 | 23.4 | 17.8 | 3.49 | 3.51 | 22.1 | 5.59 | 14.2 | 4.96 | 2.36 | > 100 | 3.38 | 1.51
4 | CCC1CNC(=O)CC1CC(=O)OC (stereo unspecified) | > 100 | > 100 | > 100 | > 100 | > 100 |  | > 100 | > 100 | > 100 |  |  |  |  |  |  |  |  |  |  | 
5 | COc1cccc(NC(=O)C(=O)C(C(C)=O)c2nc3ccc(Cl)cc3[nH]c2=O)c1 (stereo unspecified) | > 100 | > 100 | > 100 | > 100 | > 100 | > 100 | > 100 |  | > 100 |  |  |  |  |  |  |  |  | > 100 |  | 
6 | CO[C@@]12[C@@H]3NC3CN1C1=C(C(=O)C(N)=C(C)C1=O)[C@@H]2COC(N)=O (stereo partly specified) | 5.33 | 1.63 | 3.04 | 2.78 | 7.01 | 2.14 | 2.21 | > 100 | 0.631 |  |  | 0.465 | 0.504 |  |  | 0.511 |  |  |  | 0.0325
7 | OCNCCNc1nc2ccccc2c2[nH]c3ccccc3c12 |  | 2.24 | > 50 | 5.88 | 2.22 | 5.71 |  | > 50 | 4.09 |  | 0.38 | 2.98 | 1.47 | 0.366 | 1.64 |  | 0.189 | 0.863 | 1.28 | 0.902
8 | CCOC(=O)[C@H]1Nc2ccccc2C2c3ccccc3CC21 (stereo partly specified) |  | > 100 | > 100 | > 100 | > 100 | 56.9 | > 100 | > 100 | 54.6 |  |  |  |  |  |  |  |  | > 100 |  | 
9 | Cc1cc(Cl)cc2c1NC(=O)C2=O (tested in a mixture with another compound) | > 100 | > 100 | > 100 | > 100 | > 100 | 51.1 | > 100 |  | > 100 |  |  |  |  |  |  |  |  | > 100 |  | 
